“And” between values parts separate entries of the source, which are not always exact repeats. Identical values can stand only once. “Also recorded” adds a separate entry of the source. Like-named read-outs stand apart in the source and are kept apart here. Marks after values point to notes of the source that are not given here.
Assays:
MOR [1] = molecular target: T1, MOR (Mus musculus, UniProt P42866); assay: biochemical; assay type: binding; design: made in house; host or cells: Sf9 insect cell membranes (baculovirus)
male C57BL/6J mice [2] = assay: Locomotor and respiration effects (CLAMS)
MOR [3] = molecular target: T1, MOR; assay type: biochemical; design: FLAG (N); hexa-histidine (C); made in house; host or cells: Spodoptera frugiperda (Sf9) for MOR; Trichoplusia ni for Gi
δOR = molecular target: T2, δOR (Homo sapiens, UniProt P41143); assay: TRUPATH subtype selectivity, δOR/DPDPE; assay type: cell-based; conditions: compound A3 up to 30 μM
T2 construct: expressed in transfected cells; host or cells: HEK293T (method is written for MOR)

in vivo = conditions: male, C57BL/6J, mouse, iv, 10 mg/kg
[4] = male, C57BL/6J, mouse, in vivo, iv, 10 mg/kg
κOR = molecular target: T3, κOR (Homo sapiens, UniProt P41145); assay: TRUPATH subtype selectivity, κOR/U50488; assay type: cell-based; conditions: compound A3 up to 30 μM
T3 construct: expressed in transfected cells; host or cells: HEK293T (method is written for MOR)

male C57BL/6J mice [5] = assay: Conditioned place preference (CPP) assay; assay type: in vivo, mouse
male C57BL/6J mice [6] = assay: Naloxone-precipitated opioid withdrawal assay
MOR [7] = molecular target: T4, MOR (Homo sapiens, UniProt P35372); assay type: cell-based
T4 construct: expressed in transfected cells; host or cells: HEK293T

MOR [8] = molecular target: T4, MOR; assay: TRUPATH subtype selectivity, MOR/DAMGO; assay type: cell-based; conditions: compound A3 up to 30 μM
male C57BL/6J mice [9] = conditions: mouse, in vivo
MOR [10] = molecular target: T4, MOR; assay type: cell-based; remark: listed apart in the source
CB1 [11] = molecular target: T5, CB1 (Homo sapiens, UniProt P21554); assay: GTP turnover assay with CB1 and Gi1; assay type: biochemical; design: Purification of human full-length CB1 with an N-terminal FLAG and C-terminal hexahistidine tags; FLAG (N); hexahistidine (C); made in house; host or cells: insect cells (baculovirus, Expression Systems) for CB1; Trichoplusia ni for Gi
CB1 [12] = molecular target: T5, CB1; assay: 3H-SR141716A radioligand binding to CB1-containing membranes; design: made in house; host or cells: insect cell membranes (inferred from 'similar manner' to the Sf9 MOR membranes); conditions: compared with ZCZ
Experimental: CB1-containing membranes prepared in a similar manner to the μOR-containing membranes prepared above were diluted 1:2000 in 50 mM HEPES pH 7.4, 5 mM EDTA, 5 mM MgCl2, and 1% bovine serum albumin (BSA). 96-well plates precoated with blocking buffer (20 mM HEPES (pH 7.4), 100 mM NaCl, and 0.05% BSA) were used as reaction plates. For “competition” binding experiments, membranes were incubated with 6 nM ^3H-SR141716a (50.9 Ci/mmol; Perkin Elmer) and serially diluted allosteric modulators for 1 hour at room temperature with shaking. Following incubation, membranes were rapidly bound to double thick 90×120 mm glass fibre Printed Filtermat B filters (Perkin Elmer) presoaked in 0.33% (v/v) polyethylenimine and washed with cold binding buffer (20 mM HEPES pH 7.4, 100 mM NaCl) using a MicroBeta Filtermat-96 cell harvester (Perkin Elmer). ^3H-SR141716a bound membranes on Filtermats were measured with a MicroBeta counter (Perkin Elmer) after addition of MultiLex B/HS melt-on scintillator sheets (Perkin Elmer) and data values were plotted after normalizing total counts per minute to the highest and lowest values.

[13] = compound A3 1-100 mg/kg + naloxone 0.1 mg/kg, maximal at 100 mg/kg
[14] = Condition 4 morphine + compound A3 (100 mg/kg) + low NAL (0.1 mg/kg)
[15] = Condition 1 saline + NAL (10 mg/kg)
[16] = Condition 2 morphine + NAL (10 mg/kg)
[17] = Condition 3 morphine + low NAL (0.1 mg/kg)
[18] = Condition 3 morphine + low NAL (0.1 mg/kg), listed as NAL

T5 sequence (P21554 whole entry): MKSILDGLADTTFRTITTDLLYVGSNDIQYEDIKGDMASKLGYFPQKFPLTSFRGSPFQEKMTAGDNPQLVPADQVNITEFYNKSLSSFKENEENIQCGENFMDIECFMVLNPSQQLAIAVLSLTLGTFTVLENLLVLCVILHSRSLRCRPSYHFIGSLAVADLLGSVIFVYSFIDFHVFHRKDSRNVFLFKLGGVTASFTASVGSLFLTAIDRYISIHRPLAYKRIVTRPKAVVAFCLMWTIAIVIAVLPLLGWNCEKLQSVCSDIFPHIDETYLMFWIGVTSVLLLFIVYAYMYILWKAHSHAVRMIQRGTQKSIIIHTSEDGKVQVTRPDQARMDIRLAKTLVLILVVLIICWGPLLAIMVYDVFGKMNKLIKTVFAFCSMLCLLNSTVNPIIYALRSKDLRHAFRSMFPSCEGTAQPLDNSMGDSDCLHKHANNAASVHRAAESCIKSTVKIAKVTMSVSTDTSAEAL
T1 sequence (P42866 whole entry): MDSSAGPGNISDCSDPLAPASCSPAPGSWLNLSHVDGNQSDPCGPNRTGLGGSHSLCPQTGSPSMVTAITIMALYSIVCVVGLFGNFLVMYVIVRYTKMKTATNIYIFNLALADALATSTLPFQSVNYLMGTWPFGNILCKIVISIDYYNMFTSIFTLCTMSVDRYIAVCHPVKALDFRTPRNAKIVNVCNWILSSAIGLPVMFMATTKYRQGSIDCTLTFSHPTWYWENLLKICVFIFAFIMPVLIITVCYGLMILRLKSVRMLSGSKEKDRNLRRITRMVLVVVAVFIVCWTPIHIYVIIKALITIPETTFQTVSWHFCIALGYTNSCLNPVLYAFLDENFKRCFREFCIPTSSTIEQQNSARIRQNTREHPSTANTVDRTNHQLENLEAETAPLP
T4 sequence (P35372 whole entry): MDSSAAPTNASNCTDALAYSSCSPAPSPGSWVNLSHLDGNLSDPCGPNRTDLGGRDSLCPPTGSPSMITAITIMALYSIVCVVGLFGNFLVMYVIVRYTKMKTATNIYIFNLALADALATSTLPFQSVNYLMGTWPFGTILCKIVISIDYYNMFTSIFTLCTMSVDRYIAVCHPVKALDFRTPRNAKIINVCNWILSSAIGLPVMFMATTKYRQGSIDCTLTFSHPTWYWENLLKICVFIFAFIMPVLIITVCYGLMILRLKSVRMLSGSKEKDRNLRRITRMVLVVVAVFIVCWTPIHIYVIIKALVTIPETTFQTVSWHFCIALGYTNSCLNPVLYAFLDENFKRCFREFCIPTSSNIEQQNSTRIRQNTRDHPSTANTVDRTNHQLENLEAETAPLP
T2 sequence (P41143 whole entry): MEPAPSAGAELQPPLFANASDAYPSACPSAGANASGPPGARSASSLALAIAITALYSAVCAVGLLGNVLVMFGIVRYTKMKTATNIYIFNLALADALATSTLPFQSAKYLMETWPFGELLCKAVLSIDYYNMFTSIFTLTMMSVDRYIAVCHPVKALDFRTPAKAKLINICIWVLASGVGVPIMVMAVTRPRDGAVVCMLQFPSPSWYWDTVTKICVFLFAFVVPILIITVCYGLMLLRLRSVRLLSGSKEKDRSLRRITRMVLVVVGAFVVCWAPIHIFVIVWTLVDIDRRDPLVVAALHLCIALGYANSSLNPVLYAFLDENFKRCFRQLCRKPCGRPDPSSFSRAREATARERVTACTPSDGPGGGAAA
T3 sequence (P41145 whole entry): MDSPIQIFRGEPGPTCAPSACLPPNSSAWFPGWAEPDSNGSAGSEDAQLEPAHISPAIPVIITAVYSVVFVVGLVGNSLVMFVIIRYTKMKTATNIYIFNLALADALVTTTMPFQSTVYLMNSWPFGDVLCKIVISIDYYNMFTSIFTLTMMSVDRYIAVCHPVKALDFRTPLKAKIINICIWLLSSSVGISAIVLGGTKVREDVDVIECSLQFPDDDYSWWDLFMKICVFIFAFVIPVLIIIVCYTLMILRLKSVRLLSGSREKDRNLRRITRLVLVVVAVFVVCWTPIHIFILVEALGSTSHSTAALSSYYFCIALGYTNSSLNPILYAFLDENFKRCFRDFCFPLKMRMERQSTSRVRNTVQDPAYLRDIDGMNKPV

CNC(=O)C(Cc1ccc(C)c(OC)c1)NC(=O)CSc1ccc2ccccc2c1-c1cncc(OCc2ccccc2)c1 (racemic) [Compound A3, 2-(2-((1-(5-(benzyloxy)pyridin-3-yl)naphthalen-2-yl)thio)acetamido)-3-(3-methoxy-4-methylphenyl)-N-methylpropanamide]
EC50 (MOR [1]; EC50 of increased binding of 3H-naloxone, MOR-expressing membranes): 130 nM and 133 nM | increase in 3H-naloxone affinity (MOR [1]; in the presence of excess A3): ~ 2.6 fold and 2.6 fold | enhancement of observed on-rate of 3H-naloxone (MOR [1]; orthosteric site saturated with mitragynine pseudoindoxyl): > 10 fold | enhancement of low-dose naloxone inhibition of morphine-induced hyperlocomotion (male C57BL/6J mice [2]; [13]): significantly enhances low-dose naloxone inhibition of hyperlocomotion | enhancement of low-dose naloxone inhibition of morphine-induced respiratory depression (male C57BL/6J mice [2]; [13]): significantly enhances low-dose naloxone inhibition | ambulation or breathing rate, compound itself (male C57BL/6J mice [2]; compound A3 alone, relative to vehicle): does not change ambulation or breathing rate relative to vehicle administration | GTP turnover in the absence of orthosteric ligand (MOR [3]): inhibits turnover of the receptor in the absence of orthosteric ligand; also recorded: inhibited receptor-catalyzed GTP turnover in the absence of orthosteric ligands | effect on met-enkephalin induced activation of G protein (GTP turnover) (MOR [3]): significantly inhibits met-enkephalin induced activation of Gi; also recorded: inhibited MOR/met-enkephalin induced activation of Gl | efficacy of modulation of met-enkephalin-induced GTP turnover (MOR [3]): inhibiting GTP depletion to nearly the same levels as those observed for G in the absence of any receptor catalyst; also recorded: nearly eliminating receptor induced GTP turnover | potency in GTP turnover assay (MOR [3]): single-digit μM range | potency of A3 at inhibiting relative to A1 at enhancing MOR/met-enkephalin induced activation of G (MOR [3]): > 10 fold | right-shift in DPDPE potency at δOR (δOR): caused a right-shift in DPDPE potency at SOR, though to a lesser extent | half-life (in vivo): 44.4 min | brain penetration [4]: ~ 25 % of maximum plasma levels | effect at κOR activation by U50,488 (κOR): No effect is observed at KOR activation by U50,488 | morphine CPP after compound A3 and low-dose naloxone (male C57BL/6J mice [5]; compound A3 100 mg/kg sc (−30 min) + naloxone 0.1 mg/kg s.c.): morphine CPP was eliminated | Forepaw Licking Frequency, Avg (male C57BL/6J mice [6]; [14]): 0.6 | Forepaw Tremor, Avg (male C57BL/6J mice [6]; [14]): 1.6 | Rearing Frequency, Avg (male C57BL/6J mice [6]; [14]): 1.6* | Straightening, Avg (male C57BL/6J mice [6]; [14]): 0.2 | Wet Dog shakes, Avg (male C57BL/6J mice [6]; [14]): 1.1 | magnitude of naloxone-precipitated withdrawal, combined low-dose naloxone/NAM treatment (male C57BL/6J mice [6]; compound A3 100 mg/kg s.c. + naloxone 0.1 mg/kg s.c., morphine-dependent mice): did not potentiate the magnitude of withdrawal caused by a low-dose of naloxone alone to the same levels of withdrawal symptoms as the conventional naloxone treatment | enhancement of observed potency of naloxone for inhibiting agonist-induced signaling (MOR [7]): 7.6 | right-shift in DAMGO potency at the MOR (MOR [8]): 3.7 fold | impact on morphine-induced antinociception, compound alone (male C57BL/6J mice [9]): no significant impact on morphine-induced antinociception | inhibition of morphine-induced antinociception in the presence of low-dose naloxone (male C57BL/6J mice [9]): significantly inhibits morphine-induced antinociception in a dose-dependent manner | median dose to potentiate low-dose naloxone antagonism of morphine antinociception (male C57BL/6J mice [9]): 1.15 (0.03-4.04) mg/kg, s.c. | inhibition across Gi/o subtypes (MOR [10]): all Ci/o subtypes were inhibited nearly equally

CNC(=O)[C@H](Cc1ccc(C#N)cc1)NCc1csc(-c2cccc(-c3ccc4cc(N)ccc4c3)c2)n1 [Compound A1]
decrease in naloxone affinity for the receptor (MOR [1]; in the presence of A1): ~ 6 fold | effect on binding of 3H-naloxone (MOR [1]; increasing amounts of compound, MOR-expressing membranes): decrease binding of ^3H-naloxone to MOR-expressing membranes | GTP turnover in the absence of orthosteric ligand (MOR [3]): can induce GTP turnover to similar levels observed for the full agonist DAMGO | effect on met-enkephalin induced activation of G protein (GTP turnover) (MOR [3]): enhance met-enkephalin induced activation of G protein | efficacy of modulation of met-enkephalin-induced GTP turnover (MOR [3]): more efficacious at improving GTP turnover compared to A2; also recorded: highly effective at enhancing activity, fully depleting nucleotide under these conditions | potency in GTP turnover assay (MOR [3]): low double-digit micromolar

CNC(=O)c1nc2ccc(N3CC(N)C3)nn2c1-c1ccc(OCc2ccccc2)c(F)c1 [Compound A4]
effect on Gi1 GTP turnover, AEA-bound CB1 (CB1 [11]; AEA): not AEA-bound CB1 | effect on Gi1 GTP turnover, FUB-bound CB1 (CB1 [11]; FUB (MDMB-Fubinaca)): enhance FUB-induced Gi turnover; also recorded: specifically able to increase turnover for FUB-bound CB1 | effect on 3H-SR141716A antagonist binding (CB1 [12]): binds CB1 and decreases antagonist affinity though with lower potency than the known PAM, ZCZ

CNC(=O)[C@H](Cc1ccc(C)c(OC)c1)NC(=O)CSc1ccc2ccccc2c1-c1cncc(OCc2ccccc2)c1 [Compound B1, (S)-2-(2-((1-(5-(benzyloxy)pyridin-3-yl)naphthalen-2-yl)thio)acetamido)-3-(3-methoxy-4-methylphenyl)-N-methylpropanamide]
potency of B1 relative to B2, 3H-naloxone results (MOR [1]; FIG. 5A): ≥ 100 fold | potency of B1 relative to B2, GTP turnover assays (MOR [3]): ≥ 100

CN1CC[C@]23c4c5ccc(O)c4O[C@H]2[C@@H](O)C=C[C@H]3[C@H]1C5 [Morphine]
ambulations (male C57BL/6J mice [2]; Morphine (20 mg/kg, s.c.)): significantly increased ambulations for over 140 min | breathing rate (male C57BL/6J mice [2]; Morphine (20 mg/kg, s.c.)): decreased breathing rate through 100 min

C=CCN1CC[C@]23c4c5ccc(O)c4O[C@H]2C(=O)CC[C@@]3(O)[C@H]1C5 [Naloxone]
effect of low-dose naloxone pretreatment on morphine-induced hyperlocomotion (male C57BL/6J mice [2]; naloxone 0.1 mg/kg): ineffective in ameliorating morphine-induced hyperlocomotion | effect of low-dose naloxone pretreatment on morphine-induced respiratory depression (male C57BL/6J mice [2]; naloxone 0.1 mg/kg): observed to reduce morphine-induced respiratory depression | morphine CPP after vehicle and low-dose naloxone (male C57BL/6J mice [5]; vehicle (−30 min) + naloxone 0.1 mg/kg s.c. (−15 min)): did not prevent significant morphine CPP | Forepaw Tremor, Avg (male C57BL/6J mice [6]; [15]): 26.7 | Jumping Frequency, Avg (male C57BL/6J mice [6]; [15]): 2.7 | Rearing Frequency, Avg (male C57BL/6J mice [6]; [15]): 23.5 | Stool Consistency, Avg (male C57BL/6J mice [6]; [15]): 1.6 | Straightening, Avg (male C57BL/6J mice [6]; [15]): 0.1 | Teeth Chattering Frequency, Avg (male C57BL/6J mice [6]; [15]): 1 | Forepaw Tremor, Avg (male C57BL/6J mice [6]; [16]): 26.7 | Jumping Frequency, Avg (male C57BL/6J mice [6]; [16]): 76.9* | Rearing Frequency, Avg (male C57BL/6J mice [6]; [16]): 2.64* | Stool Consistency, Avg (male C57BL/6J mice [6]; [16]): precipitates significant diarrhea | Straightening, Avg (male C57BL/6J mice [6]; [16]): 0.55 | Teeth Chattering Frequency, Avg (male C57BL/6J mice [6]; [16]): 54.2* | Stool Consistency, Avg (male C57BL/6J mice [6]; Condition 2 morphine + NAL (10 mg/kg), listed as NAL): 7.46* | Forepaw Tremor, Avg (male C57BL/6J mice [6]; [17]): 7.3 | Jumping Frequency, Avg (male C57BL/6J mice [6]; [17]): caused significant withdrawal symptoms | Rearing Frequency, Avg (male C57BL/6J mice [6]; [17]): 22.2 | Stool Consistency, Avg (male C57BL/6J mice [6]; [17]): precipitates significant diarrhea | Straightening, Avg (male C57BL/6J mice [6]; [17]): 3.1 | Teeth Chattering Frequency, Avg (male C57BL/6J mice [6]; [17]): had no effect relative to saline alone | Jumping Frequency, Avg (male C57BL/6J mice [6]; [18]): 45.4*† | Stool Consistency, Avg (male C57BL/6J mice [6]; [18]): 9.3* | Teeth Chattering Frequency, Avg (male C57BL/6J mice [6]; [18]): 0.7+ | antagonism of morphine-induced antinociception by low-dose naloxone alone (male C57BL/6J mice [9]): no significant antagonism

Cc1ccc2c(C(C[N+](=O)[O-])c3cccs3)c(-c3ccccc3)[nH]c2c1 (stereo not drawn) [ZCZ, reference compound]
effect on Gi1 GTP turnover, AEA-bound CB1 (CB1 [11]): causes increased Gi1 turnover for both FUB and AEA, equally | effect on Gi1 GTP turnover, FUB-bound CB1 (CB1 [11]): causes increased Gi1 turnover for both FUB and AEA, equally

Source: patent US20260191856A1 (priority 2022, published 2026)
